# Assay results: ChEMBL document CHEMBL3885881, “DrugMatrix”
# Organism: Rattus norvegicus
# Assay: DrugMatrix - Regimen: Daily Repeat
# Assay type: toxicity, organism-based, Sprague-Dawley
# Parameters: regimen Daily Repeat, gender Male, age 6-8 weeks
# Details: in vivo, iv, vehicle 100 % SALINE
# [1] = […], 72 h, tissue Blood, dose 0.12 mg/Kg, dose level Low, time 3 day
# [2] = […], 72 h, tissue Plasma, dose 0.12 mg/Kg, dose level Low, time 3 day
# [3] = […], 120 h, tissue Blood, dose 0.12 mg/Kg, dose level Low, time 5 day
# [4] = […], 120 h, tissue Plasma, dose 0.12 mg/Kg, dose level Low, time 5 day
substance,measurement,setting,value
SODIUM NITROPRUSSIDE,URIC ACID,"6 mg/kg, 120 h, tissue Plasma, dose level High, time 5 day",1.4 mg/dL
same,ABSOLUTE BASOPHIL,[1],0 CELLS/uL
same,ABSOLUTE EOSINOPHIL,[1],0 CELLS/uL
same,ABSOLUTE LYMPHOCYTE,[1],13522.67 CELLS/uL
same,ABSOLUTE MONOCYTE,[1],88.33 CELLS/uL
same,ABSOLUTE SEGMENTED NEUTROPHIL,[1],1389 CELLS/uL
same,BASOPHIL,[1],0%
same,EOSINOPHIL,[1],0%
same,ERYTHROCYTE COUNT,[1],5.31 x10E6/uL
same,HEMATOCRIT,[1],34.4%
same,HEMOGLOBIN,[1],13.63 G/DL
same,LEUKOCYTE COUNT,[1],15 x10E3/uL
same,MEAN CORPUSCULAR HEMOGLOBIN,[1],25.67 pg
same,MEAN CORPUSCULAR HEMOGLOBIN CONCENTRATION,[1],39.63 G/DL
same,MEAN CORPUSCULAR VOLUME,[1],64.8 fL
same,MONOCYTE,[1],0.67%
same,NEUTROPHIL,[1],9.67%
same,NUCLEATED RED BLOOD CELLS,[1],0.33 /100WBC
same,PLATELET COUNT,[1],1321.67 x10E3/uL
same,ALANINE AMINOTRANSFERASE,[2],54.33 u/L
same,ALBUMIN,[2],4.1 G/DL
same,ALKALINE PHOSPHATASE,[2],342 u/L
same,ASPARTATE AMINOTRANSFERASE,[2],87.33 u/L
same,BLOOD UREA NITROGEN,[2],15 mg/dL
same,CARBON DIOXIDE,[2],26.67 mmol/L
same,CHLORIDE,[2],98.67 MEQ/L
same,CHOLESTEROL,[2],76 mg/dL
same,CREATINE PHOSPHOKINASE,[2],335.67 u/L
same,CREATININE,[2],0.11 mg/dL
same,GLUCOSE,[2],157.67 mg/dL
same,LACTATE DEHYDROGENASE,[2],223 u/L
same,PHOSPHORUS,[2],12.93 mg/dL
same,POTASSIUM,[2],6.73 MEQ/L
same,TOTAL BILIRUBIN,[2],0.23 mg/dL
same,TOTAL PROTEIN,[2],5.9 G/DL
same,ABSOLUTE BASOPHIL,[3],0 CELLS/uL
same,ABSOLUTE EOSINOPHIL,[3],39.33 CELLS/uL
same,ABSOLUTE LYMPHOCYTE,[3],10382.67 CELLS/uL
same,ABSOLUTE MONOCYTE,[3],0 CELLS/uL
same,ABSOLUTE SEGMENTED NEUTROPHIL,[3],444.67 CELLS/uL
same,BASOPHIL,[3],0%
same,EOSINOPHIL,[3],0.33%
same,ERYTHROCYTE COUNT,[3],5.02 x10E6/uL
same,HEMATOCRIT,[3],31.9%
same,HEMOGLOBIN,[3],12.83 G/DL
same,LEUKOCYTE COUNT,[3],10.87 x10E3/uL
same,LYMPHOCYTE,[3],95.67%
same,MEAN CORPUSCULAR HEMOGLOBIN,[3],25.6 pg
same,MEAN CORPUSCULAR HEMOGLOBIN CONCENTRATION,[3],40.23 G/DL
same,MEAN CORPUSCULAR VOLUME,[3],63.6 fL
same,MONOCYTE,[3],0%
same,NEUTROPHIL,[3],4%
same,NUCLEATED RED BLOOD CELLS,[3],0 /100WBC
same,PLATELET COUNT,[3],1212.67 x10E3/uL
same,ALANINE AMINOTRANSFERASE,[4],40.33 u/L
same,ALKALINE PHOSPHATASE,[4],391 u/L
same,ASPARTATE AMINOTRANSFERASE,[4],87.33 u/L
same,BLOOD UREA NITROGEN,[4],17 mg/dL
same,CARBON DIOXIDE,[4],28 mmol/L
same,CHOLESTEROL,[4],71.67 mg/dL
same,CREATINE PHOSPHOKINASE,[4],215.33 u/L
same,CREATININE,[4],0.14 mg/dL
same,GLUCOSE,[4],156.33 mg/dL
same,LACTATE DEHYDROGENASE,[4],79 u/L
same,POTASSIUM,[4],6.73 MEQ/L
same,TOTAL BILIRUBIN,[4],0.23 mg/dL
same,TOTAL PROTEIN,[4],5.87 G/DL
